Test results from US20260055103A1, “2,3,4,9-TETRAHYDRO-1H-PYRIDO[3,4-B]INDOLE DERIVATIVES AS ESTROGEN RECEPTOR MODULATORS FOR THE TREATMENT OF CANCER” (Olema Pharmaceuticals, Inc., priority 2022, published 2026).

The molecules below were run against T1, estrogen receptor (Homo sapiens, UniProt P03372) (assay: Alkaline phosphatase (AP) assay in ECC-1 cells, agonist mode (no E2) and antagonist mode (500 pM E2)). Conditions: 3 days, AP activity normalized to 500 pM E2 alone, agonist mode without E2, antagonist mode with 500 pM E2.
T1 construct: endogenous in cells; host or cells: ECC-1 cells
T1 sequence (P03372 1-595): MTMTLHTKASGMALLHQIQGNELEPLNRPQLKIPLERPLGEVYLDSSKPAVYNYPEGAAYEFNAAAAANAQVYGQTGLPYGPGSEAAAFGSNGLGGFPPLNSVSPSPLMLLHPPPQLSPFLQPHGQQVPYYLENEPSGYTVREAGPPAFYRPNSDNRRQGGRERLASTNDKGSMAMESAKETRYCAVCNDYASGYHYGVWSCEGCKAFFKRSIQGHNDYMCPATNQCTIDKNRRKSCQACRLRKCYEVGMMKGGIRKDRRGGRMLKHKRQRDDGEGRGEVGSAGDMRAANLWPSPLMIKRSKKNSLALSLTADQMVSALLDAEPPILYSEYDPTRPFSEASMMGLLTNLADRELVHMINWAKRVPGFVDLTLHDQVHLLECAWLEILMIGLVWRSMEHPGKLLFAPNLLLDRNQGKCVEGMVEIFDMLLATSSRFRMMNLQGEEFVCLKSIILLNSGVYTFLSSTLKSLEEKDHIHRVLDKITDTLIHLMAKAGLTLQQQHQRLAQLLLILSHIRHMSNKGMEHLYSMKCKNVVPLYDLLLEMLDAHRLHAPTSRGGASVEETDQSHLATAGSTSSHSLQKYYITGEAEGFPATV
Type: cell-based
In short: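 ECC-1 cells in hormone-depleted medium treated 3 days with compound alone (agonist mode) or with 500 pM E2 (antagonist mode). Alkaline phosphatase read by p-nitrophenyl phosphate hydrolysis, 40 min at 42° C, A405. Activity normalized to 500 pM E2 alone.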

**Q.** Which “Activity (estrogen receptor modulation, agonism and antagonism)” value (“Activity” for short) does the source give for CCCN1CC[C@@H](Cc2ncc([C@@H]3c4[nH]c5ccccc5c4C[C@@H](C)N3CC(F)F)s2)C1 [Example I-45, 5-[(1S,3R)-2-(2,2-difluoroethyl)-3-methyl-1,3,4,9-tetrahydropyrido[3,4-b]indol-1-yl]-2-[[(3S)-1-propylpyrrolidin-3-yl]methyl]thiazole] here?
**A.** + (estrogen receptor agonism having (i) at least 80% increase in the E2-normalized signal in the AP assay (agonist mode) and (ii) no more than 80% reduction in the E2-normalized signal in the AP assay (antagonist mode))

**Q.** CCCN1CC[C@@H](Cc2ncc([C@@H]3c4[nH]c5ccccc5c4C[C@@H](C)N3CC(F)(F)CO)s2)C1 [Example I-46, 2,2-difluoro-3-((1S,3R)-3-methyl-1-(2-(((S)-1-propylpyrrolidin-3-yl)methyl)thiazol-5-yl)-1,3,4,9-tetrahydro-2H-pyrido[3,4-b]indol-2-yl)propan-1-ol] was tested. Which “Activity” value did it give?
**A.** ++ (estrogen receptor antagonism having (i) between 10% and 80% increase in the E2-normalized signal in the AP assay (agonist mode) and (ii) between 10% and 80% reduction in the E2-normalized signal in the AP assay (antagonist mode))

**Q.** CCCN1CC[C@@H](Cc2ncc([C@@H]3c4[nH]c5ccccc5c4C[C@@H](C)N3CC(C)(C)F)s2)C1 [Example I-47] was tested. Which “Activity” value did it give?
**A.** + (estrogen receptor agonism having (i) at least 80% increase in the E2-normalized signal in the AP assay (agonist mode) and (ii) no more than 80% reduction in the E2-normalized signal in the AP assay (antagonist mode))

**Q.** How did the “Activity” value turn out when C[C@@H]1Cc2c([nH]c3ccccc23)[C@@H](c2cnc(C[C@@H]3CCN(CCCF)C3)s2)N1CC(F)(F)F [Example I-48, 2-[[(3S)-1-(3-fluoropropyl)pyrrolidin-3-yl]methyl]-5-[(1S,3R)-3-methyl-2-(2,2,2-trifluoroethyl)-1,3,4,9-tetrahydropyrido[3,4-b]indol-1-yl]thiazole] was run?
**A.** ++ (estrogen receptor antagonism having (i) between 10% and 80% increase in the E2-normalized signal in the AP assay (agonist mode) and (ii) between 10% and 80% reduction in the E2-normalized signal in the AP assay (antagonist mode))

**Q.** CCCN1CC[C@@H](Cc2ncc([C@@H]3c4[nH]c5ccccc5c4C[C@@H](C)N3CC(F)(F)F)s2)C1 [Example I-49, 5-[(1S,3R)-3-methyl-2-(2,2,2-trifluoroethyl)-1,3,4,9-tetrahydropyrido[3,4-b]indol-1-yl]-2-[[(3S)-1-propylpyrrolidin-3-yl]methyl]thiazole] was tested. Which “Activity” value did it give?
**A.** + (estrogen receptor agonism having (i) at least 80% increase in the E2-normalized signal in the AP assay (agonist mode) and (ii) no more than 80% reduction in the E2-normalized signal in the AP assay (antagonist mode))

**Q.** How did the “Activity” value turn out when CCCN1CC(Cc2cnc([C@@H]3c4[nH]c5ccccc5c4C[C@@H](C)N3CC(F)(F)CO)s2)C1 [Example I-50, 2,2-difluoro-3-[(1S,3R)-3-methyl-1-[5-[(1-propylazetidin-3-yl)methyl]thiazol-2-yl]-1,3,4,9-tetrahydropyrido[3,4-b]indol-2-yl]propan-1-ol] was run?
**A.** ++ (estrogen receptor antagonism having (i) between 10% and 80% increase in the E2-normalized signal in the AP assay (agonist mode) and (ii) between 10% and 80% reduction in the E2-normalized signal in the AP assay (antagonist mode))

**Q.** C[C@@H]1Cc2c([nH]c3ccccc23)[C@@H](c2cnc(C[C@@H]3CCN(CCC(F)F)C3)s2)N1CC(C)(C)F [Example I-51, 2-[[(3S)-1-(3,3-difluoropropyl)pyrrolidin-3-yl]methyl]-5-[(1S,3R)-2-(2-fluoro-2-methyl-propyl)-3-methyl-1,3,4,9-tetrahydropyrido[3,4-b]indol-1-yl]thiazole] was tested. Which “Activity” value did it give?
**A.** + (estrogen receptor agonism having (i) at least 80% increase in the E2-normalized signal in the AP assay (agonist mode) and (ii) no more than 80% reduction in the E2-normalized signal in the AP assay (antagonist mode))

**Q.** How did the “Activity” value turn out when C[C@@H]1Cc2c([nH]c3ccccc23)[C@@H](c2nnc(CC3CN(CCCF)C3)s2)N1CC(C)(C)F [Example I-52, 2-((1S,3R)-2-(2-fluoro-2-methylpropyl)-3-methyl-2,3,4,9-tetrahydro-1H-pyrido[3,4-b]indol-1-yl)-5-((1-(3-fluoropropyl)azetidin-3-yl)methyl)-1,3,4-thiadiazole] was run?
**A.** ++ (estrogen receptor antagonism having (i) between 10% and 80% increase in the E2-normalized signal in the AP assay (agonist mode) and (ii) between 10% and 80% reduction in the E2-normalized signal in the AP assay (antagonist mode))

**Q.** With COCCCN1CC(Cc2ccc([C@@H]3c4[nH]c5ccccc5c4C[C@@H](C)N3CC(F)(F)CO)s2)C1 [Example I-53, 2,2-difluoro-3-[(1S,3R)-1-[5-[[1-(3-methoxypropyl)azetidin-3-yl]methyl]-2-thienyl]-3-methyl-1,3,4,9-tetrahydropyrido[3,4-b]indol-2-yl]propan-1-ol] as the molecule, how does the “Activity” value read?
**A.** ++ (estrogen receptor antagonism having (i) between 10% and 80% increase in the E2-normalized signal in the AP assay (agonist mode) and (ii) between 10% and 80% reduction in the E2-normalized signal in the AP assay (antagonist mode))

**Q.** How did the “Activity” value turn out when COCCCN1CC(Cc2ccc([C@@H]3c4[nH]c5ccccc5c4C[C@@H](C)N3CC(C)(C)F)s2)C1 [Example I-54, (1S,3R)-2-(2-fluoro-2-methyl-propyl)-1-[5-[[1-(3-methoxypropyl)azetidin-3-yl]methyl]-2-thienyl]-3-methyl-1,3,4,9-tetrahydropyrido[3,4-b]indole] was run?
**A.** + (estrogen receptor agonism having (i) at least 80% increase in the E2-normalized signal in the AP assay (agonist mode) and (ii) no more than 80% reduction in the E2-normalized signal in the AP assay (antagonist mode))

**Q.** Which “Activity” value does the source give for C[C@@H]1Cc2c([nH]c3ccccc23)[C@@H](c2sc(CC3CN(CCCF)C3)cc2F)N1CC(F)(F)CO [Example I-55, 2,2-difluoro-3-[(1S,3R)-1-[3-fluoro-5-[[1-(3-fluoropropyl)azetidin-3-yl]methyl]-2-thienyl]-3-methyl-1,3,4,9-tetrahydropyrido[3,4-b]indol-2-yl]propan-1-ol] here?
**A.** +++ (estrogen receptor antagonism (i) with pIC50 greater than 7.5 and at least a 10% reduction in the E2-normalized signal in the AP assay (antagonist mode); and no more than 10% increase in E2-normalized signal in the AP assay (agonist mode))

**Q.** C[C@@H]1Cc2c([nH]c3ccccc23)[C@@H](c2ccc(CC3CN(CCC#N)C3)s2)N1CC(C)(C)F [Example I-56, 3-[3-[[5-[(1S,3R)-2-(2-fluoro-2-methyl-propyl)-3-methyl-1,3,4,9-tetrahydropyrido[3,4-b]indol-1-yl]-2-thienyl]methyl]azetidin-1-yl]propanenitrile] was tested. Which “Activity” value did it give?
**A.** ++ (estrogen receptor antagonism having (i) between 10% and 80% increase in the E2-normalized signal in the AP assay (agonist mode) and (ii) between 10% and 80% reduction in the E2-normalized signal in the AP assay (antagonist mode))

**Q.** For C[C@@H]1Cc2c([nH]c3ccccc23)[C@@H](c2ccc(CC3CN(CCC#N)C3)s2)N1CC(F)(F)CO [Example I-57], which “Activity” value is on record?
**A.** ++ (estrogen receptor antagonism having (i) between 10% and 80% increase in the E2-normalized signal in the AP assay (agonist mode) and (ii) between 10% and 80% reduction in the E2-normalized signal in the AP assay (antagonist mode))

**Q.** C#CCN1CC(Cc2ccc([C@@H]3c4[nH]c5ccccc5c4C[C@@H](C)N3CC(C)(C)F)s2)C1 [Example I-58, (1S,3R)-2-(2-fluoro-2-methyl-propyl)-3-methyl-1-[5-[(1-prop-2-ynylazetidin-3-yl)methyl]-2-thienyl]-1,3,4,9-tetrahydropyrido[3,4-b]indole] was tested. Which “Activity” value did it give?
**A.** + (estrogen receptor agonism having (i) at least 80% increase in the E2-normalized signal in the AP assay (agonist mode) and (ii) no more than 80% reduction in the E2-normalized signal in the AP assay (antagonist mode))

**Q.** With C[C@@H]1Cc2c([nH]c3ccccc23)[C@@H](c2ccc(CC3CN(CCC4COC4)C3)s2)N1CC(F)(F)CO [Example I-59, 2,2-difluoro-3-((1S,3R)-3-methyl-1-(5-((1-(2-(oxetan-3-yl)ethyl)azetidin-3-yl)methyl)thiophen-2-yl)-1,3,4,9-tetrahydro-2H-pyrido[3,4-b]indol-2-yl)propan-1-ol] as the molecule, how does the “Activity” value read?
**A.** + (estrogen receptor agonism having (i) at least 80% increase in the E2-normalized signal in the AP assay (agonist mode) and (ii) no more than 80% reduction in the E2-normalized signal in the AP assay (antagonist mode))

**Q.** How did the “Activity” value turn out when C#CCN1CC(Cc2ccc([C@@H]3c4[nH]c5ccccc5c4C[C@@H](C)N3CC(F)(F)CO)s2)C1 [Example I-60, 2,2-difluoro-3-[(1S,3R)-3-methyl-1-[5-[(1-prop-2-ynylazetidin-3-yl)methyl]-2-thienyl]-1,3,4,9-tetrahydropyrido[3,4-b]indol-2-yl]propan-1-ol] was run?
**A.** ++ (estrogen receptor antagonism having (i) between 10% and 80% increase in the E2-normalized signal in the AP assay (agonist mode) and (ii) between 10% and 80% reduction in the E2-normalized signal in the AP assay (antagonist mode))
